The term pEC50 denotes −log10 of the EC50, conventionally taken in molar units.

pEC50: −log10 of the molar value.

This is an account of results in patent publication US5962501A, “Enantiomer of carbazole derivative as 5-HT1-like agonists” (SmithKline Beecham, p.l.c., priority 1992, dated 1999).

This experiment concerns the target T1, 5-HT1 -like receptor (Oryctolagus cuniculus, UniProt P49144).
T1 construct: Arteries were then cut into ring segments (ca 4-5 mm wide) and set up for recording of isometric tension; from tissue; host or cells: rabbit basilar artery rings, endothelium removed
Description: 5-HT1-like receptor screen, rabbit isolated basilar artery (cumulative concentration-effect curves, isometric tension). The format is cell-based. Particulars: in presence of ascorbate, indomethacin, cocaine, ketanserin and prazosin. Here is the method: 5-HT1 -like Receptor Screen
In brief, rabbits were killed by overdose with anaesthetic (sodium pentobarbitone). The whole brain was quickly removed and immersed in ice cold modified Kreb's solution and the basilar artery removed with the aid of a dissecting microscope. […] The endothelium was removed by a gentle rubbing of the lumen with a fine metal wire. […] The arteries were then placed under a resting force of 3-4 mN maintained at 37° C. and the solution bubbled with 95% O2 /5% CO2.
After tests for initial reactivity with 90 mM KCl depolarising solution and for lack of acetylcholine-induced relaxation of 5-HT ([…]) precontraction, cumulative concentration-effect curves ([…]) to 5-HT were constructed in the presence of ascorbate […], cocaine […], indomethacin […], ketanserin […] and prazosin […].
Following a 45-60 min wash period, cumulative concentration-effect curves to the test compounds or 5-HT (as a time match control) were constructed in the presence of ascorbate, indomethacin, cocaine, ketanserin and prazosin.

T1 sequence (P49144 whole entry): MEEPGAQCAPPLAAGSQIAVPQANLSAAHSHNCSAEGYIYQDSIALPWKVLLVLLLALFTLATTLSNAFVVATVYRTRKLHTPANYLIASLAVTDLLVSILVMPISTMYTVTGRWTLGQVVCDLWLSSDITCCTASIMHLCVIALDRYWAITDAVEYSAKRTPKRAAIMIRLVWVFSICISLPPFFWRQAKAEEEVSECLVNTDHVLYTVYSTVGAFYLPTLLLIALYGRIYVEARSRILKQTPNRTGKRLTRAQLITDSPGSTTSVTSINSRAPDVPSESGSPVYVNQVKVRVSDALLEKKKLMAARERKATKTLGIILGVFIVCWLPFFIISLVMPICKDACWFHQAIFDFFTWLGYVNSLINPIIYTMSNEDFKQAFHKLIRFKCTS

Turning to `CN[C@H]1CCc2[nH]c3ccc(C(N)=O)cc3c2C1` [Compound B, S-(-)-6-carboxamido-3-N-methylamino-1,2,3,4-tetrahydrocarbazole], the pEC50 was < 5.70.
